Assay: Inhibition of Clostridium perfringens carbonic anhydrase preincubated for 15 mins by stopped flow CO2 hydration assay

| SMILES | Ki |
| --- | --- |
| O=[N+]([O-])[O-].[Na+] [SODIUM NITRATE] | 4.6 mM |
| O=[Se](=O)(O)O [SODIUM SELENATE] | 0.47 mM |
| O=S(=O)(O)ONOS(=O)(=O)O [SODIUM IMINODISULFATE] | 4.9 mM |
| N=C=S [SODIUM ISOTHIOCYANATE] | 0.83 mM |
| O=S(=O)(O)OOS(=O)(=O)O [SODIUM PERSULFATE] | 9.2 mM |
| [O-][Cl+3]([O-])([O-])O [SODIUM PERCHLORATE] | > 200 mM |
| CCN(CC)C(=S)S [DITIOCARB SODIUM] | 0.36 mM |
| S [SODIUM HYDROSULFIDE] | 4 mM |
| O=P(O)(O)OP(=O)(O)O [SODIUM PYROPHOSPHATE] | 2.7 mM |
| O=C([O-])[O-].[Na+].[Na+] [SODIUM CARBONATE] | 0.65 mM |
| O=[As](O)(O)c1ccccc1 [PHENYLARSONIC ACID] | 0.007 mM |
| [Cl-].[Na+] [SODIUM CHLORIDE] | 4.3 mM |
| O=S(=O)([O-])[O-].[Na+].[Na+] [SODIUM SULFATE ANHYDROUS] | 7.9 mM |
| S=C(S)S [SODIUM CARBONOTRITHIOATE] | 1 mM |
| [N-]=[N+]=[N-] [SODIUM AZIDE] | 4.2 mM |
| O=BOB(O)OB(O)OB=O [SODIUM TETRABORATE] | 2.5 mM |
| [I-].[Na+] [SODIUM IODIDE] | 63.4 mM |
| F[B-](F)(F)F.[Na+] [SODIUM TETRAFLUOROBORATE] | > 200 mM |
| O=NO [SODIUM NITRITE] | 4.1 mM |
| [F-].[Na+] [SODIUM FLUORIDE] | 4.8 mM |
| O=[Te](=O)(O)O [SODIUM TELLURATE] | 3.3 mM |
| O=S([O-])O.[Na+] [SODIUM BISULFITE] | 4.9 mM |
| O=C([O-])O.[Na+] [SODIUM BICARBONATE] | 2.1 mM |
| OB(O)c1ccccc1 [PHENYLBORONIC ACID] | 0.075 mM |
| CC(=O)Nc1nnc(S(N)(=O)=O)s1 [ACETAZOLAMIDE] | 4.9e-05 mM |
| NS(=O)(=O)O [SULFAMATE] | 0.009 mM |
| [Br-].[Na+] [SODIUM BROMIDE] | 21.5 mM |

From ChEMBL document CHEMBL3091278 (Bioorg Med Chem Lett, 2013)
